# Patent publication US20130116292A1, “NEURORESTORATION WITH R(+) PRAMIPEXOLE” (University of Virginia Patent Foundation, priority 2005, published 2013)
# Key:
# [1] = test system: patients with amyotrophic lateral sclerosis (ALS); details: 30 mg/day for up to 8 weeks
# Description: Phase I clinical studies with R(+) pramipexole were conducted in patients with amyotrophic lateral sclerosis (ALS), a fatal adult neurodegenerative disease arising from the loss of motor nerve cells. […] These reports included such things as regaining the ability to speak coherently, the ability to climb stairs again, and improved motor skills in their extremities, i.e. hands and/or fingers.
# [2] = test system: D2 family of dopamine receptors; details: cited from earlier work
# [3] = test system: oxidative stress produced by MPP+ (ETC complex I inhibitor); details: both in vitro and in vivo; cited from earlier work
# [4] = test system: mitochondrial transition pore (MTP); details: induced by MPP+ and other stimuli; cited from earlier work
# [5] = test system: dopamine neurons (MPTP toxicity); details: cellular and animal models of increased oxidative stress, including MPTP toxicity to dopamine neurons; cited from earlier work
Structure (SMILES),patients reporting improvements in motor function [1],stability in aqueous solutions,"dopamine agonist activity ([2]; Schneider and Mierau, J. Med. Chem. 1987)",agonism of the D2 family of dopamine receptors [2],effect on oxidative stress produced by MPP+ [3],effect on opening of the mitochondrial transition pore (MTP) [4],neuroprotection [5]
"CCCN[C@@H]1CCc2nc(N)sc2C1 [R(+) pramipexole, R-(+)-2-amino-4,5,6,7-tetrahydro-6-propylaminobenzathiazole]",approximately half the patients,stable in aqueous solutions,very little,,,,
CCCN[C@H]1CCc2nc(N)sc2C1 [S(−) PPX],,,,potent agonist,reduces oxidative stress,can block the opening,neuroprotective
